Reference: patent US9029377B2, “Platelet-activating factor receptor antagonists” (Merck Sharp & Dohme Corp., priority 2009, dated 2015)

Molecular target: PAFR (Homo sapiens, UniProt P25105)
Assay: PAF Binding Assay (PAFR binding)

Chain of PAFR (P25105 whole entry): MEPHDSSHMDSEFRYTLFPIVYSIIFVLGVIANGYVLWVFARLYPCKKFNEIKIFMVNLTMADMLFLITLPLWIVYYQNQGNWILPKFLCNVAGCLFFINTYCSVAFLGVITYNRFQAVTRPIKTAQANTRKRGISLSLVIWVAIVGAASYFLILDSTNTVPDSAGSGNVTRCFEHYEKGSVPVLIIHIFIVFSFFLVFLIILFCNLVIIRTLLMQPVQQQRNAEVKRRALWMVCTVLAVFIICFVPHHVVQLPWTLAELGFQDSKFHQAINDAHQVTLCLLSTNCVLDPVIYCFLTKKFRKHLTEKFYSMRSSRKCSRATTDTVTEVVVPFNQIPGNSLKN

Structure (SMILES) | IC50
CCc1cc(-c2ccc(F)nc2)ccc1S(=O)(=O)N[C@H]1CCC[C@@H](n2cnnc2)C1 [Compound 2Aam, 2-ethyl-4-(6-fluoropyridin-3-yl)-N-[(1S,3R)-3-(4H-1,2,4-triazol-4-yl)cyclohexyl]benzenesulfonamide] | 81 nM
Cc1nncn1[C@@H]1CCC[C@H](NS(=O)(=O)c2ccc(-c3ccc(OC(F)(F)F)cc3)cc2F)C1 [Compound 2Jg, 3-fluoro-N-[(1S,3R)-3-(3-methyl-4H-1,2,4-triazol-4-yl)cyclohexyl]-4′-(trifluoromethoxy)biphenyl-4-sulfonamide] | 10 nM
CCc1cc(-c2cccnc2OC)ccc1S(=O)(=O)N[C@H]1CCC[C@@H](n2cnnc2)C1 [Compound 2Aq, 2-ethyl-4-(2-methoxypyridin-3-yl)-N-[(1S,3R)-3-(4H-1,2,4-triazol-4-yl)cyclohexyl]benzenesulfonamide] | 27 nM
C=C(F)F.CCC(F)(F)c1nc(-c2ccc(S(=O)(=O)N[C@H]3CCC[C@@H](n4cnnc4)C3)c(C3CC3)c2)no1 [2 Kd, 2-cyclopropyl-4-[5-(1,1-difluoropropyl)-1,2,4-oxadiazol-3-yl]-N-[(1S,3R)-3-(4H-1,2,4-triazol-4-yl)cyclohexyl]benzenesulfonamide-1,1-difluoroethylene (1:1)] | 8.9 nM
O=S(=O)(N[C@H]1CCC[C@@H](n2cnnc2)C1)c1cc(F)cc(-c2cccc3cccnc23)c1 [Compound 3Fc, 3-fluoro-5-quinolin-8-yl-N-[(1S,3R)-3-(4H-1,2,4-triazol-4-yl)cyclohexyl]benzenesulfonamide] | 1 nM
CCCCOc1ccc(S(=O)(=O)N[C@H]2CCC[C@@H](n3cnnc3C)C2)cc1F [Compound 2Fj, 4-butoxy-3-fluoro-N-[(1S,3R)-3-(3-methyl-4H-1,2,4-triazol-4-yl)cyclohexyl]benzenesulfonamide] | 1.9 nM
O=S(=O)(N[C@H]1CCC[C@@H](n2cnnc2C2CC2)C1)c1ccc(-c2noc(C3CC3)n2)cc1OC(F)(F)F [Compound 2Bb, 4-(5-cyclopropyl-1,2,4-oxadiazol-3-yl)-N-[(1S,3R)-3-(3-cycloropyl-4H-1,2,4-triazol-4-yl)cyclohexyl]-2-(trifluoromethoxy)benzenesulfonamide] | 4.3 nM
Cc1nncn1[C@@H]1CCC[C@H](NS(=O)(=O)c2ccc(-c3noc(C4CCCC4)n3)cc2OC(F)(F)F)C1 [Compound 2Bbh, 4-(5-cyclopentyl-1,2,4-oxadiazol-3-yl)-N-[(1S,3R)-3-(3-methyl-4H-1,2,4-triazol-4-yl)cyclohexyl]-2-(trifluoromethoxy)benzenesulfonamide] | 3.8 nM
COc1ncccc1-c1cc(OC(F)(F)F)cc(S(=O)(=O)N[C@H]2CCC[C@@H](n3cnnc3)C2)c1 [Compound 3Eb, 3-(2-methoxypyridin-3-yl)-N-[(1S,3R)-3-(4H-1,2,4-triazol-4-yl)cyclohexyl]-5-(trifluoromethoxy)benzenesulfonamide] | 13 nM
O=S(=O)(N[C@H]1CCC[C@@H](n2cnnc2C2CC2)C1)c1ccc(-c2noc(C3CCC3)n2)cc1OC(F)(F)F [Compound 2Bc, 4-(5-cyclobutyl-1,2,4-oxadiazol-3-yl)-N-[(1S,3R)-3-(3-cycloropyl-4H-1,2,4-triazol-4-yl)cyclohexyl]-2-(trifluoromethoxy)benzenesulfonamide] | 2.5 nM
CCc1cc(-c2ccn3nccc3n2)ccc1S(=O)(=O)N[C@H]1CCC[C@@H](n2cnnc2)C1 [Compound 2Aav, 2-ethyl-4-pyrazolo[1,5-a]pyrimidin-5-yl-N-[(1S,3R)-3-(4H-1,2,4-triazol-4-yl)cyclohexyl]benzenesulfonamide] | 9.7 nM
O=S(=O)(N[C@H]1CCC[C@@H](n2cnnc2)C1)c1cc(-c2cccnc2OCC(F)(F)F)cc(C(F)(F)F)c1 [Compound 3Aam, N-[(1S,3R)-3-(4H-1,2,4-triazol-4-yl)cyclohexyl]-3-[2-(2,2,2-trifluoroethoxy)pyridin-3-yl]-5-(trifluoromethyl)benzenesulfonamide] | 3.2 nM
